In ChEMBL document CHEMBL5729619, “Substituted pyrazolo[3,4-b]pyrazines as SHP2 phosphatase inhibitors” (2023):

Molecular target: T1, Tyrosine-protein phosphatase non-receptor type 11 (Homo sapiens, UniProt Q06124)
T1 sequence (Q06124 whole entry): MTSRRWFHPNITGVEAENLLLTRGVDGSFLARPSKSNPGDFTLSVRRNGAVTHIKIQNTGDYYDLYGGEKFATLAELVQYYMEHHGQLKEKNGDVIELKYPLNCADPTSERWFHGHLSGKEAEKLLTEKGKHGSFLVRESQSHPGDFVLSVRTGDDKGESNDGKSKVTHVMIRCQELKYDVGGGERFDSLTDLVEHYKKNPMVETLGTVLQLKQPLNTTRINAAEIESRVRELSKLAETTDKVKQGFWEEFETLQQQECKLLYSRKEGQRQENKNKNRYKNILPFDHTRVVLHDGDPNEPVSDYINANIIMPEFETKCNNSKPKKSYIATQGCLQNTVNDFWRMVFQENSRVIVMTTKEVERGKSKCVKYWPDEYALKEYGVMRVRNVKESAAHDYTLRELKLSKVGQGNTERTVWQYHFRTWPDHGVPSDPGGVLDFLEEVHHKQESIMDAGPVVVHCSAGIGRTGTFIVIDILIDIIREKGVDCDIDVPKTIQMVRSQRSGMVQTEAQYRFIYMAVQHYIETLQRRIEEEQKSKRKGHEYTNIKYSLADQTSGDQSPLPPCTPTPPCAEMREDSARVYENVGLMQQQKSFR
Test: Inhibition Assay: SHP2 is allosterically activated through binding of bis-tyrosyl-phorphorylated peptides to its Src Homology 2 (SH2) domains. The latter activation step leads to the release of the auto-inhibitory interface of SHP2, which in turn renders the SHP2 protein tyrosine phosphatase (PTP) active and available for substrate recognition and reaction catalysis. The catalytic activity of SHP2 was monitored using the surrogate substrate DiFMUP in a prompt fluorescence assay format.The inhibition of SHP2 by compounds of the disclosure (concentrations varying from 0.003-100 μM) was monitored using an assay in which 0.25 nM of SHP2 was incubated with of 0.5 μM of peptide IRS1_pY1172(dPEG8)pY1222 (sequence: H2N-LN(pY)IDLDLV(dPEG8)LST(pY)ASINFQK-amide) After 30-60 minutes incubation at 25° C., the surrogate substrate DiFMUP (Invitrogen, cat #D6567, 100 μM final) was added to the reaction and the conversion of DiFMUP to 6,8-difluoro-7-hydroxyl-4-methyl coumarin (DiFMU) was monitored continuously for 10 minutes with excitation at 355 nm and emission at 460 nm using a microplate reader (PolarStar, BMG).

SMILES	IC50 [µM]
C[C@@H]1CCN(c2n[nH]c3nc(N4CCC5(CC4)CO[C@@H](C)[C@H]5N)cnc23)c2ccc(C(=O)NCc3cccnc3)nc21	< 1
C[C@@H]1OCC2(CCN(c3cnc4c(N5CC(=O)N(C)c6cnccc65)n[nH]c4n3)CC2)[C@@H]1N	< 1
C[C@@H]1OCC2(CCN(c3cnc4c(N5CCCc6nc(N7CCN(C)C(=O)C7)ccc65)n[nH]c4n3)CC2)[C@@H]1N	< 1
CC1(CN)CCN(c2cnc3c(N4CCc5c(C6CC6)cccc54)n[nH]c3n2)CC1	< 1
C[C@@H]1OCC2(CCN(c3cnc4c(N5CCNc6cnccc65)n[nH]c4n3)CC2)[C@@H]1N	< 1
C[C@@H]1OCC2(CCN(c3cnc4c(N5CCCc6c5cccc6S(=O)(=O)N(C)C)n[nH]c4n3)CC2)[C@@H]1N	< 1
